Experiments:
[1] = Moisture retention rate in Conway's dish at defined relative humidity; type: physicochemical; conditions: relative humidity 32%; 30° C., 24 hours; reference set as 100%; FIG. 4
Method: In addition, the moisture retention and water absorption of P-113 peptide were determined by dissolving magnesium chloride (MgCl2) and potassium chloride (KCl), two types of salts, in water, preparing supersaturated solutions based on the solubility of these two types of salt respectively, separately placing in sealed bottles to create a relative humidity of 32% and 84% respectively, then using P-113 peptide and hyaluronic acid for comparison test.
0.1 g of P-113 peptide and hyaluronic acid powder were weighed and placed in the internal chamber of a Conway's dish, then 0.1 ml of deionized water was added, saturated solutions were then added in the external chamber, sealed with the Conway's dish lid and placed in the oven at 30° C. for 24 hours, then samples were removed and weighed.
Moisture retention at different humidity levels was calculated according to the following formula: Moisture retention rate (%)=[1−((Wt−W0)/W0)]×100%
(§1) wherein W0: the weight (g) of the initial sample, and Wt: the weight (g) of the sample removed after 24 hours.

[2] = Moisture absorption rate in Conway's dish at defined relative humidity; type: physicochemical; conditions: relative humidity 32%; 30° C., 24 hours; relative to hyaluronic acid at RH 32% set as 100%; FIG. 3
Method: The moisture absorption of the P-113 peptide was determined by dissolving magnesium chloride (MgCl2) and potassium chloride (KCl), two types of salts, in water, preparing supersaturated solutions based on the respective solubility of these two types of salts, placing the solutions in sealed bottles to create a relative humidity of 32% and 84%, respectively, then taking P-113 peptide and hyaluronic acid for comparison test. The hyaluronic molecule of hyaluronic acid could carry up to 500 folds of water. The hyaluronic acid is currently recognized as the best moisturizing ingredient, and widely used in cosmetics and skincare products.
0.1 g of P-113 peptide and hyaluronic acid powder were weighed and placed in the internal chamber of a Conway's dish, saturated solutions were added in the external chamber, oil was applied on the rim of the Conway's dish lid to seal it completely, placed in an oven at 30° C. for 24 hours, then samples were removed and weighed.
Moisture absorption rate under different humidity was calculated by the following formula: Moisture absorption rate (%)=[(Wt−W0)/W0]×100%
as §1

cells = assay: Cytotoxicity test: MTT assay of cell survival rate; type: cell-based; conditions: 0, 20, 100 and 200 μg/ml; treated 2 hours; FIG. 2
Method: The cytotoxicity test was performed with Methylthiazol tetrazolium bromide (MTT) assay to test the cell survival rate. The principle was that MTT is a water-soluble yellow dye, after reacting with cells it was reduced by the NADPH in the cells to become an insoluble dark blue crystal, then the blue crystal was dissolved with dimethyl sulfoxide (DMSO), the absorbance value was analyzed, the stronger the cell activity, the darker the blue, and when the cell was dead, it became yellow.
In the present invention, from low to high concentration (0, 20, 100 and 200 μg/ml) of P-113 peptide and the MI preservative were used to treat the cells for 2 hours, then the MTT solution was added for reaction, a spectrophotometer at the wavelength of 595 nm was used to analyze the cell survival rate, and the harmful toxic effect of the cosmetic raw material on the cells was determined.

Compound: hyaluronic acid
- moisture retention rate [1]: 100%
- moisture absorption rate [2]: 100%

Compound: Cn1sccc1=O [MI, Methylisothiazolinone]
- cell survival rate (MTT) (cells): decreased the cell survival rate

— patent US10596095B2, “Method for moisturizing skin using P-113 peptide” (PACGEN LIFE SCIENCE CORPORATION, priority 2015, dated 2020)
